According to patent US20100173832A1, “ANTICANCEROUS POLYMERIC AGENTS” (TECHNION RESEARCH & DEVELOPMENT FOUNDATION LTD., priority 2007, published 2010):
Like-named read-outs stand apart in the source and are kept apart here. Non-standard residues stand in square brackets, D forms with d. Residues, ends and D or L forms follow the SMILES beside them. *: point of attachment. Lauroyl = CCCCCCCCCCCC(=O)*; 12Ado = NCCCCCCCCCCCC(=O)O

Assays:
MCF-7 cell line = format: cell-based; conditions: for CC50: 24 hours incubation, XTT, read-out: Cancer LC50 Human breast cancer MCF-7
Description: Human breast adenocarcinoma cells (MCF-7);
Thereafter, a series of increasing concentrations of the polymers were added. […] The optical density of the cells was measured at 450 nm by ELISA plate reader after 2-4 hours XTT incubation. Cell viability was determined relative to a control having no polymer added thereto.

[1] = tested on: human red blood cells (RBC); assay: in vitro
Description: (§1) The polymer's toxic potential was determined against human red blood cells (RBC) by measuring leakage of hemoglobin therefrom in phosphate buffer solution (PBS). Human blood samples were rinsed three times in PBS by centrifugation for 2 minutes at 200×g, and re-suspended in PBS at 5% hematocrit. A 50 μl-fractions of a suspension containing […] RBC were added to test tubes containing 200 μl of polymer solutions (2-fold serial dilutions in PBS), PBS alone (for base-line values), or distilled water (for 100% hemolysis). […] Controls for base-line hemolysis (blank) and 100% hemolysis consisted of RBC suspended in PBS and TritonX100 (0.2%), respectively.

in vitro = conditions: human, red blood cells
Description: as §1

[2] = XTT cell viability assay, non-cancerous cardiac fibroblasts (CF); format: cell-based, rat; conditions: rat, primary non-cancerous cardiac fibroblasts (CF), 24 hours incubation, XTT, non-cancerous cells; read-out: Cancer LC50 Rat primary cardiac fibroblast CF
Description: Primary non-cancerous rat cardiac fibroblasts (CF);
(§2) As a routine cancer cell killing assay for assessment of antitumor activity, 2,3-bis(2-methoxy-4-nitro-5-sulfophenyl)-2H-tetrazolium-5-carboxanilide inner salt (XTT) reduction assay was used, utilizing a commercial kit such as, for example, Cell Proliferation XTT Kit, Cat. No. 20-300-1000, Biological Industries Ltd., Kibbutz Beit Haemek, Israel. XTT is a tetrazolium salt which is cleaved to formazan colored compounds by the mitochondrial dehydrogenase enzymes indicating proper mitochondrial activity in intact cells.
(§3) Thereafter, a series of increasing concentrations of the polymers were added. After another 24 hours of incubation, XTT reaction solution was added (50 μl of XTT per 100 μl of cell culture medium). The optical density of the cells was measured at 450 nm by ELISA plate reader after 2-4 hours XTT incubation. Cell viability was determined relative to a control having no polymer added thereto.
“Rat primary cardiac fibroblast CF” represents the lethal concentration in μM as measured against CF cell line, measured as described hereinabove in the cell proliferation XTT assay (column 8 in Table 3);

N-417 cell line = assay: XTT cell viability assay, N-417 cells; format: cell-based; conditions: 24 hours incubation, XTT; read-out: Cancer LC50 Human small-cell lung carcinoma N-417
Description: Variant small cell lung cancer cells (N-417, SCLC);
as §2, §3
“Human breast cancer MCF-7” represents the lethal concentration in μM as measured against MCF-7 cell line, measured as described hereinabove in the cell proliferation XTT assay (column 6 in Table 3); “Human small-cell lung carcinoma N-417” represents the lethal concentration in μM as measured against N-417 cell line, measured as described hereinabove in the cell proliferation XTT assay (column 7 in Table 3);

TRAMP-C2 cell line = format: cell-based; conditions: for CC50: 24 hours incubation, XTT, read-out: Cancer LC50 Mouse prostate cancer TRAMP-C2
Description: Transgenic adenocarcinoma mouse prostate cells (TRAMP-C2);
as §2, §3
“Mouse prostate cancer TRAMP-C2” represents the lethal concentration in μM as measured against TRAMP-C2 cell line, measured as described hereinabove in the cell proliferation XTT assay (column 5 in Table 3);

[3] = tested on: drug-resistant 2008/MRP1 cells; conditions: human, 3 day
[4] = tested on: drug-resistant 2008/MRP1 cells; assay: Cytotoxicity against drug-resistant 2008/MRP1 cells; conditions: read-out: LC50 against drug-resistant 2008/MRP1 cells; 1 day exposure (overnight), FIG. 10
[5] = tested on: ovarian carcinoma 2008 drug-sensitive cells; assay: Cytotoxicity against drug-sensitive ovarian carcinoma 2008 cells; conditions: read-out: LC50 against drug-sensitive 2008 cells

Row | SMILES | CC50 (MCF-7 cell line) [µM] | hemolytic concentration versus cytotoxic concentration against cancer cells [1] | HC50 at 3 h (in vitro) [µM] | CC50 at 24 h [2] [µM] | CC50 (N-417 cell line) [µM] | CC50 (TRAMP-C2 cell line) [µM] | CC50 [3] [µM] | CC50 [4] [µM] | CC50 ([5]; 1 day exposure (overnight), FIG. 10) [µM] | CC50 ([1]; read-out: LC50 RBC (hemolytic concentration inducing lysis of 50% of human red blood cells), 3 hours incubation at 37° C., hemoglobin leakage assay) [µM] | MCF-7 lethal concentration (MCF-7 cell line; human breast adenocarcinoma MCF-7 cells, XTT assay) [µM] | TRAMP-C2 lethal concentration (TRAMP-C2 cell line; mouse prostate cancer TRAMP-C2 cells, XTT assay) [µM] | CC50 ([5]; Homo sapiens, 72 h) [µM]
1 | NCCCCCCCCCCCC(=O)N[C@@H](CCCCN)C(=O)NCCCCCCCCCCCC(=O)N[C@@H](CCCCN)C(=O)N[C@@H](CCCCN)C(=O)NCCCCCCCCCCCC(=O)N[C@@H](CCCCN)C(=O)N[C@@H](CCCCN)C(=O)NCCCCCCCCCCCC(=O)N[C@@H](CCCCN)C(N)=O [NC12(KNC12K)3NH2] (H-[12Ado]K[12Ado]KK[12Ado]KK[12Ado]K-NH2) | 7 ± 1 | more than one order of magnitude higher | > 100 | 37 ± 1 | > 16 | > 16 | – | – | – | – | – | – | –
2 | NCCCCCCCCCCCC(=O)N[C@@H](CCCCN)C(=O)N[C@@H](CCCCN)C(=O)NCCCCCCCCCCCC(=O)N[C@@H](CCCCN)C(=O)N[C@@H](CCCCN)C(=O)NCCCCCCCCCCCC(=O)N[C@@H](CCCCN)C(=O)N[C@@H](CCCCN)C(=O)NCCCCCCCCCCCC(=O)N[C@@H](CCCCN)C(N)=O (H-[12Ado]KK[12Ado]KK[12Ado]KK[12Ado]K-NH2) | 7 ± 1 | more than one order of magnitude higher | > 100 | 35 ± 5 | 10 ± 1 | 15 | 4 | ~15 | ~15 | – | – | – | –
3 | NCCCC[C@H](NC(=O)CCCCCCCCCCCNC(=O)[C@H](CCCCN)NC(=O)[C@H](CCCCN)NC(=O)CCCCCCCCCCCNC(=O)[C@H](CCCCN)NC(=O)[C@H](CCCCN)NC(=O)CCCCCCCCCCCNC(=O)[C@@H](N)CCCCN)C(N)=O [(KNC12K)3NH2] (H-K[12Ado]KK[12Ado]KK[12Ado]K-NH2) | > 16 | – | > 100 | > 16 | > 16 | > 16 | – | – | – | > 100 | – | – | –
4 | NCCCC[C@H](NC(=O)CCCCCCCCCCCNC(=O)[C@H](CCCCN)NC(=O)[C@H](CCCCN)NC(=O)CCCCCCCCCCCNC(=O)[C@H](CCCCN)NC(=O)[C@H](CCCCN)NC(=O)CCCCCCCCCCCNC(=O)[C@H](CCCCN)NC(=O)[C@@H](N)CCCCN)C(N)=O [K(KNC12K)3NH2] (H-KK[12Ado]KK[12Ado]KK[12Ado]K-NH2) | > 16 | – | > 100 | > 16 | > 16 | > 16 | – | – | – | – | – | – | –
5 | CCCCCCCCCCCC(=O)N[C@@H](CCCCN)C(=O)N[C@@H](CCCCN)C(=O)NCCCCCCCCCCCC(=O)N[C@@H](CCCCN)C(=O)N[C@@H](CCCCN)C(=O)NCCCCCCCCCCCC(=O)N[C@@H](CCCCN)C(=O)N[C@@H](CCCCN)C(=O)NCCCCCCCCCCCC(=O)N[C@@H](CCCCN)C(N)=O (Lauroyl-KK[12Ado]KK[12Ado]KK[12Ado]K-NH2) | 8 ± 1 | – | 10 ± 1 | 36 ± 6 | 17 ± 2 | > 16 | – | – | – | – | – | – | –
6 | NCCCC[C@H](NC(=O)CCCCCCCCCCCNC(=O)[C@H](CCCCN)NC(=O)[C@H](CCCCN)NC(=O)CCCCCCCCCCCNC(=O)[C@@H](N)CCCCN)C(N)=O [(KNC12K)2NH2] (HELM PEPTIDE1{K.[O=C(CCCCCCCCCCCN[*:1])[*:2]].K.K.[O=C(CCCCCCCCCCCN[*:1])[*:2]].K.[am]}$$$$V2.0) | > 16 | – | > 100 | > 16 | > 16 | > 16 | – | – | – | – | – | – | –
7 | COc1cccc2c1C(=O)c1c(O)c3c(c(O)c1C2=O)C[C@@](O)(C(=O)CO)C[C@@H]3O[C@H]1C[C@H](N)[C@H](O)[C@H](C)O1 [doxorubicin, reference compound] | – | – | – | – | – | – | – | – | – | – | 3.3 ± 2 | 0.5 ± 0.5 | 0.035
